This is an account of results in the supplement of paper PMC11208160.
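Note: IS621 bridge recombinase in Escherichia coli cells against a fixed T5 target plasmid.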

The nature of the data set: recombinant UMI read abundance after kanamycin selection (control-corrected) (log10(CPM+1)); higher = more efficient recombination; extreme values may be limits of the assay; sequences stand for … in AGTGCAGAGAAAATCGGCCAGTTTTCTCTGCCTGCAGTCCGCATGCCGTGGGACCCCTTGGGTTCTAACCTGTTGCCTAGATTTATGCAGCGGACTGCCTTTCTCCCAAAGTGATAAACCGG…AGGTTGGTTTCACT; site = the 11-nt donor. An outline of the steps: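 In Escherichia coli, a pool of donor and donor-binding-loop pairs, each with a 12-nt UMI, was tested for the IS621 bridge recombinase. Plating was on IPTG (0.07 mM) plus kanamycin, or without selection, in two replicates. Recombinant UMIs were amplified by PCR across the donor–target junction and sequenced, and counts were reported as log10(CPM+1) after averaging and control-derived scaling.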
Take “CTGTAAACATGGACCGGTTTTCCCGGTAATCCGTATTTGCA (site CTGCAAACTTG)”: the “recombinant UMI read abundance (log10)” value was 0.604.
As for “CTGTAAACATGGACCGGTTTTCCCGGTAATCCGTATTTGCA (site CTGGAAACTTG)”, the “recombinant UMI read abundance (log10)” value was 0.
As for “CTGTAAACATGGACCGGTTTTCCCGGTAATCCGTATTTGCA (site CTGTAAACTTG)”, the figure is 1.29; as for “CTGTACCCATGGACCGGTTTTCCCGGTAATCCGTATTTGTA (site CTGTACCCTTA)”, 0.461.
As for “CTGTCTCCATGGACCGGTTTTCCCGGTAATCCGTATTTGTC (site CTGTCTCCTGA)”, the figure is 0.331.
The same measure for “CTTAGATCATGGACCGGTTTTCCCGGTAATCCGTATTTGGG (site CTTAGATCTCC)”: 0.475; for “CTTATAACATGGACCGGTTTTCCCGGTAATCCGTATTTGGA (site CTTATAACTTC)”: 1.
Regarding “CTTCAATCATGGACCGGTTTTCCCGGTAATCCGTATTTGGT (site CTTCAATCTAC)”, the “recombinant UMI read abundance (log10)” value is 1.96.
As for “CTTCCGACATGGACCGGTTTTCCCGGTAATCCGTATTTGAC (site CTTCCGACTGT)”, the figure is 2.04; as for “CTTCCTACATGGACCGGTTTTCCCGGTAATCCGTATTTGAG (site CTACCTACTCT)”, 0.0179; as for “CTTCCTACATGGACCGGTTTTCCCGGTAATCCGTATTTGAG (site CTCCCTACTCT)”, 0.0168.
The same measure for “CTTCCTACATGGACCGGTTTTCCCGGTAATCCGTATTTGAG (site CTGCCTACTCT)”: 0.0339; for “CTTCCTACATGGACCGGTTTTCCCGGTAATCCGTATTTGAG (site CTTCCTACTCT)”: 0.0166; for “CTTCGAGCATGGACCGGTTTTCCCGGTAATCCGTATTTGCA (site ATTCGAGCTTG)”: 0.00677.
As for “CTTCGAGCATGGACCGGTTTTCCCGGTAATCCGTATTTGCA (site CTTCGAGCTTG)”, the figure is 1.03.
As for “CTTCGAGCATGGACCGGTTTTCCCGGTAATCCGTATTTGCA (site GTTCGAGCTTG)”, the “recombinant UMI read abundance (log10)” value was 0.
Turning to “CTTCGAGCATGGACCGGTTTTCCCGGTAATCCGTATTTGCA (site TTTCGAGCTTG)”, the “recombinant UMI read abundance (log10)” value was determined as 0.
As for “CTTCTACCATGGACCGGTTTTCCCGGTAATCCGTATTTGCT (site CTACTACCTAG)”, the figure is 0; as for “CTTCTACCATGGACCGGTTTTCCCGGTAATCCGTATTTGCT (site CTCCTACCTAG)”, 0.00753; as for “CTTCTACCATGGACCGGTTTTCCCGGTAATCCGTATTTGCT (site CTGCTACCTAG)”, 0.
The same measure for “CTTCTACCATGGACCGGTTTTCCCGGTAATCCGTATTTGCT (site CTTCTACCTAG)”: 0.00449; for “CTTCTATCATGGACCGGTTTTCCCGGTAATCCGTATTTGGT (site CTTCTATCTAC)”: 1.58; for “CTTCTCCCATGGACCGGTTTTCCCGGTAATCCGTATTTGTA (site CTTCTCACTTA)”: 0.0088.
As to “CTTCTCCCATGGACCGGTTTTCCCGGTAATCCGTATTTGTA (site CTTCTCCCTTA)”, the “recombinant UMI read abundance (log10)” value came out at 0.487.
The same measure for “CTTCTCCCATGGACCGGTTTTCCCGGTAATCCGTATTTGTA (site CTTCTCGCTTA)”: 0.0148; for “CTTCTCCCATGGACCGGTTTTCCCGGTAATCCGTATTTGTA (site CTTCTCTCTTA)”: 0.837.
In the case of “CTTCTCGCATGGACCGGTTTTCCCGGTAATCCGTATTTGCG (site CTTCTCGCTCG)”, the “recombinant UMI read abundance (log10)” value was 0.0091.
Consider “CTTGCCCCATGGACCGGTTTTCCCGGTAATCCGTATTTGTA (site CTTGCCCCTTA)”, for which the “recombinant UMI read abundance (log10)” value is 0.366.
The same measure for “CTTGCTTCATGGACCGGTTTTCCCGGTAATCCGTATTTGAT (site CTTGCTTCTAT)”: 0.0131.
As for “CTTGGAACATGGACCGGTTTTCCCGGTAATCCGTATTTGTT (site CATGGAACTAA)”, the “recombinant UMI read abundance (log10)” value worked out at 0.791.
As for “CTTGGAACATGGACCGGTTTTCCCGGTAATCCGTATTTGTT (site CCTGGAACTAA)”, the “recombinant UMI read abundance (log10)” value was 0.00748.
The same measure for “CTTGGAACATGGACCGGTTTTCCCGGTAATCCGTATTTGTT (site CGTGGAACTAA)”: 0.00508; for “CTTGGAACATGGACCGGTTTTCCCGGTAATCCGTATTTGTT (site CTTGGAACTAA)”: 1.36.
As to “CTTGTAACATGGACCGGTTTTCCCGGTAATCCGTATTTGCA (site CTTGTAACTTG)”, the “recombinant UMI read abundance (log10)” value was found to be 0.147.
Turning to “CTTGTATCATGGACCGGTTTTCCCGGTAATCCGTATTTGAC (site CTAGTATCTGT)”, the “recombinant UMI read abundance (log10)” value stood at 0.
For “CTTGTATCATGGACCGGTTTTCCCGGTAATCCGTATTTGAC (site CTCGTATCTGT)”, the “recombinant UMI read abundance (log10)” value is 0.
As for “CTTGTATCATGGACCGGTTTTCCCGGTAATCCGTATTTGAC (site CTGGTATCTGT)”, the figure is 0.
In the case of “CTTGTATCATGGACCGGTTTTCCCGGTAATCCGTATTTGAC (site CTTGTATCTGT)”, the “recombinant UMI read abundance (log10)” value is 0.
As for “CTTGTATCATGGACCGGTTTTCCCGGTAATCCGTATTTGGC (site CTAGTATCTGT)”, the figure is 0.315; as for “CTTGTATCATGGACCGGTTTTCCCGGTAATCCGTATTTGGC (site CTTGTATCTGC)”, 0.486.
The same measure for “CTTTAAACATGGACCGGTTTTCCCGGTAATCCGTATTTGTC (site CTTTAAACTGA)”: 0; for “CTTTTCTCATGGACCGGTTTTCCCGGTAATCCGTATTTGTA (site CTTATCTCTTA)”: 0.
The same measure for “CTTTTCTCATGGACCGGTTTTCCCGGTAATCCGTATTTGTA (site CTTCTCTCTTA)”: 0.274.
On to “CTTTTCTCATGGACCGGTTTTCCCGGTAATCCGTATTTGTA (site CTTGTCTCTTA)”, for which the “recombinant UMI read abundance (log10)” value turned out to be 0.00384.
Regarding “CTTTTCTCATGGACCGGTTTTCCCGGTAATCCGTATTTGTA (site CTTTTCTCTTA)”, the “recombinant UMI read abundance (log10)” value amounted to 0.0916.
As for “GAAACTACATGGACCGGTTTTCCCGGTAATCCGTATTTGCC (site GAAACTACTGG)”, the figure is 1.88; as for “GAACACCCATGGACCGGTTTTCCCGGTAATCCGTATTTGGA (site GAACACCCTTC)”, 0.00915.
As for “GAACATACATGGACCGGTTTTCCCGGTAATCCGTATTTGAA (site GAACATACTTT)”, the figure is 1.69; as for “GAACATTCATGGACCGGTTTTCCCGGTAATCCGTATTTGTT (site GAAAATTCTAA)”, 0.
With “GAACATTCATGGACCGGTTTTCCCGGTAATCCGTATTTGTT (site GAACATTCTAA)”, the “recombinant UMI read abundance (log10)” value was 2.03.
As for “GAACATTCATGGACCGGTTTTCCCGGTAATCCGTATTTGTT (site GAAGATTCTAA)”, the figure is 0; as for “GAACATTCATGGACCGGTTTTCCCGGTAATCCGTATTTGTT (site GAATATTCTAA)”, 0.0114.
Turning to “GAACCGACATGGACCGGTTTTCCCGGTAATCCGTATTTGGT (site GAACCGACTAC)”, the “recombinant UMI read abundance (log10)” value stood at 0.724.
The same measure for “GAACGGCCATGGACCGGTTTTCCCGGTAATCCGTATTTGCA (site GAAAGGCCTTG)”: 0.
The same measure for “GAACGGCCATGGACCGGTTTTCCCGGTAATCCGTATTTGCA (site GAACGGCCTTG)”: 0.812; for “GAACGGCCATGGACCGGTTTTCCCGGTAATCCGTATTTGCA (site GAAGGGCCTTG)”: 0.
As for “GAACGGCCATGGACCGGTTTTCCCGGTAATCCGTATTTGCA (site GAATGGCCTTG)”, the figure is 0; as for “GAACTCACATGGACCGGTTTTCCCGGTAATCCGTATTTGCT (site GAACTCACTAG)”, 2.53; as for “GAACTGGCATGGACCGGTTTTCCCGGTAATCCGTATTTGCG (site GAACTGGCTCG)”, 0.715.
With “GAACTTACATGGACCGGTTTTCCCGGTAATCCGTATTTGCG (site GAACTTACTCG)”, the “recombinant UMI read abundance (log10)” value came to 1.85.
The same measure for “GAAGACTCATGGACCGGTTTTCCCGGTAATCCGTATTTGTT (site GAAGAATCTAA)”: 0.423.
The same measure for “GAAGACTCATGGACCGGTTTTCCCGGTAATCCGTATTTGTT (site GAAGACTCTAA)”: 2.84; for “GAAGACTCATGGACCGGTTTTCCCGGTAATCCGTATTTGTT (site GAAGAGTCTAA)”: 0.00964.
As for “GAAGACTCATGGACCGGTTTTCCCGGTAATCCGTATTTGTT (site GAAGATTCTAA)”, the “recombinant UMI read abundance (log10)” value is 0.506.
As for “GAAGGAGCATGGACCGGTTTTCCCGGTAATCCGTATTTGTA (site GAAGGAGCTTA)”, the figure is 2.33; as for “GAAGGGCCATGGACCGGTTTTCCCGGTAATCCGTATTTGCA (site GAAAGGCCTTG)”, 0; as for “GAAGGGCCATGGACCGGTTTTCCCGGTAATCCGTATTTGCA (site GAACGGCCTTG)”, 0.
In the case of “GAAGGGCCATGGACCGGTTTTCCCGGTAATCCGTATTTGCA (site GAAGGGCCTTG)”, the “recombinant UMI read abundance (log10)” value was 0.
